According to article PMC9747717, “A novel small molecule inhibitor of human Drp1” (Scientific Reports, 2022):

Legend:
[1] = biological target: T1, human Drp1 isoform 3 (Homo sapiens, UniProt O00429); assay: Surface plasmon resonance (SPR) binding; details: concentrations as high as 100 µM
T1 construct: His tag; made in house; host or cells: E. coli Rosetta (DE3), pET21b vector
Experimental: The recombinant human Drp1 protein (His-tagged human Drp1 isoform 3, kindly provided by Professor Michael Ryan, Monash University, Australia) was generated as described previously. Briefly, cDNA for human Drp1 (isoform 3) was cloned into pET21b vector and transformed in Rosetta (DE3) competent cells (Novagen, MA, Merck Millipore). Transformed cells were propagated in Luria–Bertani broth and protein expression was initiated by the addition of 0.5 mM isopropyl β-D-1-thiogalactopyranoside. […]
All SPR experiments were performed on a Biacore T200 instrument (GE Healthcare Life Sciences, Uppsala, Sweden) at 25 °C in the presence of HEPES buffered saline containing 20 mM phosphate (pH 7.5), 137 mM NaCl, 2.7 mM KCl and 0.05% Tween-20 (HBS + P). […] Sensor surface was activated with 1:1 mixture of 0.4 M EDC and 0.1 M NHS for 7 min, followed by incremental injections of the protein to reach ~ 8000 RU (flow rate 10 μL/minute) for a calculated maximum analyte binding capacity (Rmax) of 30–50 RU. […]
Compounds were dissolved in 100% dimethyl sulfoxide (DMSO) and then added to HBS + P at a final DMSO concentration of 2%. […] SPR results were analysed using the Biacore T200 Evaluation Software v.1.

[2] = biological target: T1, human Drp1 isoform 3; assay: Microscale thermophoresis (MST) binding; details: human Drp1 isoform 3, 5% DMSO
Experimental: The recombinant human Drp1 protein (His-tagged human Drp1 isoform 3, kindly provided by Professor Michael Ryan, Monash University, Australia) was generated as described previously. Briefly, cDNA for human Drp1 (isoform 3) was cloned into pET21b vector and transformed in Rosetta (DE3) competent cells (Novagen, MA, Merck Millipore). Transformed cells were propagated in Luria–Bertani broth and protein expression was initiated by the addition of 0.5 mM isopropyl β-D-1-thiogalactopyranoside. Cells were harvested by centrifugation at 3,500 g for 20 min at 4 °C, and the pellet was re-suspended in lysis buffer containing 50 mM Tris HCl (pH 7.3), 500 mM NaCl, 50 mM imidazole, 2.5 mM β-mercaptoethanol, 0.01 mM LEUPEP, 0.1 mM AEBSF and 1 mM benzaminidium chloride. The cells were lysed using a pre-cooled EmulsiFlex-C5 homogenizer (Avestin, Ontario, Canada) on ice and clarified by centrifugation at 17,000 g for 30 min. The clarified cell lysate was loaded onto a 5 mL Nickel Chelating Sepharose Fast Flow column (GE Healthcare, Buckinghamshire, UK) and Drp1 protein was eluted with wash buffer containing 50 mM Tris–HCl (pH 7.6), 150 mM NaCl, 2.5 mM β-mercaptoethanol and 400 mM imidazole. […]
Compound binding was assessed in against the human Drp1 isoform-3 protein using MST Monolith NT.115 instrument (NanoTemper Technologies, Mȕnchen, Germany). […]

[3] = Dynamic light scattering (DLS) compound aggregation threshold; type: physicochemical
Experimental: Identification of compound aggregation threshold was performed using DLS Zetasizer Nano ZS (Malvern Pananalytical, Worcestershire, UK). 100 µL of samples were measured in low-volume plastic micro cuvettes (BrandTech Scientific, CT, USA) at 25 °C using default size measurement settings. […] Mdivi-1 and DRP1i27 were serially diluted three-fold from 500 µM until the volume distribution of particle size was similar to that of the DMSO control. To specifically determine aggregation threshold, further dilution was carried out between concentrations where aggregation was first observed.

[4] = biological target: T1, human Drp1 isoform 3; assay: Drp1 GTPase activity, colorimetric malachite green assay; type: biochemical
Experimental: The GTPase activity of Drp1, which is required for the latter to mediate mitochondrial fission, was examined using the colorimetric GTPase assay kit (Innova Biosciences, Cambridge, UK) according to the manufacturer’s instructions. Compounds were diluted in DMSO (all with a final concentration of 0.1% DMSO). Recombinant human Drp1 protein isoform-3 (final concentration 0.25 ng/µL) was diluted in assay buffer containing 50 mM Tris HCl (pH 7.5) and 2.5 mM MgCl2, followed by incubation with compounds for 15 min at 37 °C in a 96 well plate. 0.5 mM GTP, diluted in assay buffer, was then added into the mixture followed by incubation at 37 °C for 30 min.
Upon binding to Drp1, GTP is hydrolysed into GDP and free phosphate (Pi)[24]. Therefore, the degree of GTPase inhibition was assessed by measuring the concentration of Pi released into the assay buffer, which is detected by a malachite green-based dye. The intensity of Pi-dye complex was assessed by measuring the light absorbance at 635 nm wavelength using a microplate reader (BenchMark Plus, MS, USA). Absorbance of each experimental group was normalised to the vehicle control (DMSO).

[5] = biological target: human Drp1; parameters: method as in PMID 28350990; details: read-out: inhibitory constant (Ki), GTPase activity of human Drp1; cited from earlier work
[6] = tested on: human iPSC-derived cardiomyocytes; assay: Doxorubicin-induced cardiomyocyte injury, LDH release; type: cell-based; details: doxorubicin 5 µM alone, 2 days
Experimental: Cardiomyocytes were derived from human induced pluripotent stem cells (iPSCs, CERA007c6 cell line) as previously described with modifications[26],[27]. Briefly, human iPSCs were seeded onto Matrigel (Corning) coated plates at a density of 1.25 × 10^5 cells/cm^2 in TeSR-E8 medium supplemented with 10 μM Y−27632 (Abcam). After 48 h (cells ~ 90% confluent) (day 0), medium was replaced with RPMI-1640 basal medium (Thermo Fisher Scientific) containing B-27 without insulin supplement (Thermo Fisher Scientific), growth factor reduced Matrigel (1:60 dilution) and 10 μM CHIR99021 (Cayman Chemical). At day 1, medium was replaced with RPMI 1640 basal medium containing B-27 without insulin supplement. […]
Enriched cardiomyocytes were replated onto Matrigel-coated 48-well plates at a cell density of 5 × 10^4 cells/cm^2 for 2 days. […] LDH levels in the conditioned media were assessed using a colorimetric CyQUANT LDH Cytotoxicity Assay Kit (Thermo Fisher Scientific) according to manufacturer’s protocol. […] Following the incubation at room temperature for 30 min in the dark, 50 μL of Stop Solution was added and absorbance was measured at 490 nm and 680 nm on a microplate spectrophotometer (Bio-Rad). All readings were then corrected for the background signal from the culture media and expressed as fold change.

T1 sequence (O00429 1-699 isoform O00429-4): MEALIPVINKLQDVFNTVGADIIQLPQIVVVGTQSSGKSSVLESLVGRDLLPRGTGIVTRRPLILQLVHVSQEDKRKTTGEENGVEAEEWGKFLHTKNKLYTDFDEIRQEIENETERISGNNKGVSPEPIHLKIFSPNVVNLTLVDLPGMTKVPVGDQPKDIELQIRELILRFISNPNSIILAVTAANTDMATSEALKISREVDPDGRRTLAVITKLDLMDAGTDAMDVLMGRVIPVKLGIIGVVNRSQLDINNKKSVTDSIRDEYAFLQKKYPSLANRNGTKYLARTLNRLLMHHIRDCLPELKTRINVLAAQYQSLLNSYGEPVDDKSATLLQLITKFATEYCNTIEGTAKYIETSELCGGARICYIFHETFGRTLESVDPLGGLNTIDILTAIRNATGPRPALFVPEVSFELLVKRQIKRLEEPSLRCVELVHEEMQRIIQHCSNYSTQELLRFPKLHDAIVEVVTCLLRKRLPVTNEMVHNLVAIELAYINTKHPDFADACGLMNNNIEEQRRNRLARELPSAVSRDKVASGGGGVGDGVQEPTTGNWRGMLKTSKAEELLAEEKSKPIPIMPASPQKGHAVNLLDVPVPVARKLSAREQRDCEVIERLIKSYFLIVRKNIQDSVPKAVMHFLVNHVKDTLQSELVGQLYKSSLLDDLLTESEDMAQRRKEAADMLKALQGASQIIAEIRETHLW

Compound | SPR binding response [1] | Kd [2] | aggregation threshold ([3]; 2% DMSO with 0.05% Tween-20) | aggregation threshold ([3]; 5% DMSO with 0.05% Tween-20) | aggregation threshold ([3]; PBS, 2% DMSO) | aggregation threshold ([3]; PBS, 5% DMSO) | concentrations at which the compound aggregated ([3]; assay buffer containing DMSO and Tween-20) | inhibition of GTPase activity of human Drp1 ([4]; 5 µM) | inhibition of GTPase activity of human Drp1 ([4]; increasing concentration above 5 µM) | Ki [5] | LDH release [6]
COc1cc(-n2c(=S)[nH]c3ccccc3c2=O)c(Cl)cc1Cl [Mdivi-1] | no binding response | 0.23 µM | 70 µM | 18.5 µM | 20 µM | 35 µM | above 18.5 µM | significant inhibition | not observed | > 1200 µM | 
COc1cccc2c1C(=O)c1c(O)c3c(c(O)c1C2=O)C[C@@](O)(C(=O)CO)C[C@@H]3O[C@H]1C[C@H](N)[C@H](O)[C@H](C)O1 [doxorubicin, reference compound] |  |  |  |  |  |  |  |  |  |  | 3.41 ± 0.11 fold change
